The text below walks through data of US20260308159A1, “BICYCLIC HETEROARYLAMIDES HAVING GPR68 MODULATING ACTIVITY” (RECURSION PHARMACEUTICALS, INC., priority 2023, published 2026).

This test has as its target T1, human GPR68 (Homo sapiens, UniProt Q15743).
T1 construct: encoding full-length human GPR68 (uniprot ID: Q15743); expressed in transfected cells; host or cells: HEK293T
Put plainly: GPR68 Biochemical Assay (Promega GloSensor cAMP assay, GPR68 antagonism). The format is cell-based. Conditions: HEK293T cells transiently expressing hGPR68, antagonism of pH 5.5 stimulated cAMP, 15 min, read-out: hGPR68 IC50. The method in brief: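 Readout is GloSensor cAMP luminescence after 15 min at room temperature, normalised between pH 5.5 stimulation and pH 8.0 minimum controls; IC50 fitted sigmoidally. Test compounds, up to 50 μM final (9-point half-log, 0.5% DMSO), were co-added with pH 5.5 buffer to HEK293T cells transiently expressing full-length human GPR68 plus GloSensor.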
(Cyclic AMP is a second messenger, typically raised through Gs and lowered through Gi signalling.)

T1 sequence (Q15743 whole entry): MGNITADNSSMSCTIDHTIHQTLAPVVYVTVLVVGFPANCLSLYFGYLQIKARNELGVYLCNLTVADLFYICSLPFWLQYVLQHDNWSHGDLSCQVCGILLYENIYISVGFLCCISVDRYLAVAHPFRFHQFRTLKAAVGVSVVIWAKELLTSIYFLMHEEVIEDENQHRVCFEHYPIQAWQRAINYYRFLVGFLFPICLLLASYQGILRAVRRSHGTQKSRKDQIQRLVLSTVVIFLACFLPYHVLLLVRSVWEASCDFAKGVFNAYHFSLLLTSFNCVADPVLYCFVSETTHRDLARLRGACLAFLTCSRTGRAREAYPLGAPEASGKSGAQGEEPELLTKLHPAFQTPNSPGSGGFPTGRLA

For `NC(=O)c1c(C2CC2)nn2c(C(=O)N[C@H]3CCS(=O)(=O)c4ccccc43)ccnc12` [Compound 236, 2-cyclopropyl-N7-[(4S)-1,1-dioxo-3,4-dihydro-2H-thiochromen-4-yl]pyrazolo[1,5-a]pyrimidine-3,7-dicarboxamide], the IC50 was less than 50 nM.

With `COCc1nn2c(C(=O)NC3CC(F)(F)c4ccc(F)cc43)ccnc2c1C(N)=O` (stereo not shown) [Compound 237, 2-(Methoxymethyl)-N7-(3,3,6-trifluoroindan-1-yl)pyrazolo[1,5-a]pyrimidine-3,7-dicarboxamide], the IC50 is less than 50 nM.

As for `COCc1nn2c(C(=O)N[C@@H]3COc4c3ccc(F)c4F)ccnc2c1C(N)=O` [Compound 238, N7-[(3S)-6,7-difluoro-2,3-dihydrobenzofuran-3-yl]-2-(methoxymethyl)pyrazolo[1,5-a]pyrimidine-3,7-dicarboxamide], the IC50 was less than 50 nM.

`COCc1nn2c(C(=O)NC3CCC(F)(F)c4cc(F)ccc43)ccnc2c1C(N)=O` (stereo not shown) [Compound 239, 2-(methoxymethyl)-N7-(4,4,6-trifluorotetralin-1-yl)pyrazolo[1,5-a]pyrimidine-3,7-dicarboxamide]: the IC50 is less than 50 nM.

On to `COCc1nn2c(C(=O)NC3CCC(F)(F)CC3)cc(C)nc2c1C(N)=O` [Compound 240, N7-(4,4-difluorocyclohexyl)-2-(methoxymethyl)-5-methyl-pyrazolo[1,5-a]pyrimidine-3,7-dicarboxamide], for which the half-inhibitory concentration (IC50) is less than 50 nM.

On to `COCc1nn2c(C(=O)NC3CCS(=O)(=O)c4ccccc43)cc(C)nc2c1C(N)=O` (stereo not shown) [Compound 241, N7-(1,1-dioxo-3,4-dihydro-2H-thiochromen-4-yl)-2-(methoxymethyl)-5-methyl-pyrazolo[1,5-a]pyrimidine-3,7-dicarboxamide], for which the IC50 lay within 50 to 500 nM.

Consider `Cc1cc(C(=O)NC2CCS(=O)(=O)c3ccccc32)n2nc(C3CC3)c(C(N)=O)c2n1` (stereo not shown) [Compound 242, 2-cyclopropyl-N7-(1,1-dioxo-3,4-dihydro-2H-thiochromen-4-yl)-5-methyl-pyrazolo[1,5-a]pyrimidine-3,7-dicarboxamide], for which the IC50 was less than 50 nM.

As usually defined, the IC50 is the concentration needed to halve the response being measured.
